The subject of test [1] is KB. Briefly: Compound was evaluated for cytotoxicity against human epidermoid carcinoma of nasopharynx (KB) cells. It counts as functional, cell-based.
Test [2] has as its system P388. Briefly: Percentage of the median survival time of P388 leukemic mice (T) at intraperitoneal administration of 0.4 mg/kg dose to that of controls (C). Format: functional, Mus musculus.
Test [3] has as its system P388. Description: Percentage of the median survival time of P388 leukemic mice (T) at intraperitoneal administration of 1.6 mg/kg dose to that of controls (C). It counts as functional, Mus musculus.
Test [4] relates to P388. Description: Percentage of the median survival time of P388 leukemic mice (T) at intraperitoneal administration of 6.25 mg/kg dose to that of controls (C). It counts as functional, Mus musculus.
Test [5] concerns KATO III stomach cancer cell line. Briefly: Compound was evaluated for cytotoxicity against KATO-III gastric carcinoma cells. It counts as functional, cell-based. As to conditions: Homo sapiens.
Test [6] relates to L1210. Description: Compound was evaluated for cytotoxicity against L1210 leukemia cells. The conditions noted are these: Mus musculus. It counts as functional, cell-based.
Test [7] has as its system B16. Description: Compound was evaluated for percent tumor volume against B16 melanoma in mice (T) at 1.6 mg/kg intravenous administration after 11 days ot that of control (C). Format: functional, Mus musculus.
Test [8] concerns B16. Briefly: Compound was evaluated for percent tumor volume against B16 melanoma in mice (T) at 1.6 mg/kg intravenous administration after 13 days ot that of control (C). It counts as functional, Mus musculus.
The subject of test [9] is B16. Briefly: Compound was evaluated for percent tumor volume against B16 melanoma in mice (T) at 1.6 mg/kg intravenous administration after 8 days ot that of control (C). It counts as functional, Mus musculus.
The subject of test [10] is B16. Description: Compound was evaluated for percent tumor volume against B16 melanoma in mice (T) at 3.13 mg/kg intravenous administration after 11 days ot that of control (C). Format: functional, Mus musculus.
Test [11] concerns B16. Briefly: Compound was evaluated for percent tumor volume against B16 melanoma in mice (T) at 3.13 mg/kg intravenous administration after 8 days ot that of control (C). Format: functional, Mus musculus. The conditions noted are these: 3.13 mg/kg.
Test [12] has as its system Colon 26. Description: Compound was evaluated for percent tumor volume against colon 26 cells in mice (T) at a dose of 0.8 mg/kg intravenous administration after 10 days ot that of control (C). It counts as functional, Mus musculus.
The test system of test [13] is Colon 26. Description: Compound was evaluated for percent tumor volume against colon 26 cells in mice (T) at a dose of 0.8 mg/kg intravenous administration after 12 days ot that of control (C). It counts as functional, Mus musculus.
The test system of test [14] is Colon 26. Briefly: Compound was evaluated for percent tumor volume against colon 26 cells in mice (T) at a dose of 1.6 mg/kg intravenous administration after 10 days ot that of control (C). Format: functional, Mus musculus.
Test [15] concerns Colon 26. Briefly: Compound was evaluated for percent tumor volume against colon 26 cells in mice (T) at a dose of 1.6 mg/kg intravenous administration after 12 days ot that of control (C). It counts as functional, Mus musculus.
For test [16], the system named is Colon 26. Briefly: Compound was evaluated for percent tumor volume against colon 26 cells in mice (T) at a dose of 1.6 mg/kg intravenous administration after 8 days ot that of control (C). It counts as functional, Mus musculus.
The test system of test [17] is Colon 26. Description: Compound was evaluated for percent tumor volume against colon 26 cells in mice (T) at a dose of 0.8 mg/kg intravenous administration after 8 days ot that of control (C). It counts as functional, Mus musculus.
In test [18] the test system is Colon 26. Briefly: Compound was evaluated for percent tumor volume against colon 26 cells in mice (T) at a dose of 3.13 mg/kg intravenous administration after 10 days ot that of control (C). It counts as functional, Mus musculus.
Test [19] has as its system Colon 26. Description: Compound was evaluated for percent tumor volume against colon 26 cells in mice (T) at a dose of 3.13 mg/kg intravenous administration after 12 days ot that of control (C). It counts as functional, Mus musculus.
Test [20] relates to Colon 26. Briefly: Compound was evaluated for percent tumor volume against colon 26 cells in mice (T) at a dose of 3.13 mg/kg intravenous administration after 8 days ot that of control (C). It counts as functional, Mus musculus.
In test [21] the test system is P388. Briefly: Percentage of the median survival time of P388 leukemic mice (T) at intraperitoneal administration of 6.25 mg/kg dose to that of controls (C); Toxic. Format: functional, organism-based. The arrangement: dose 6.25 mg/kg. As to conditions: Mus musculus.

SMILES strings stand for the structures. Converted amounts (≈) assume the structure as drawn. “And” between values parts separate entries of the source, which are not always exact repeats. Equal values may be shown once.

By IC50 is commonly meant the concentration that gives 50% inhibition. The T/C is the ratio of treated to control.

In [1], `COc1ccc(C[C@H]2C(=O)N[C@@H](C)C(=O)N(C)[C@H]3Cc4cccc(c4)Oc4cc(ccc4OCCN4CCCC4)C[C@@H](C(=O)N[C@H](C)C(=O)N[C@@H](C)C(=O)N2C)N(C)C3=O)cc1` [listing 1 of 2 here] showed an IC50 of 19 ng/mL (≈ 0.0222 µM).

With `COc1ccc(C[C@H]2C(=O)N[C@@H](C)C(=O)N(C)[C@H]3Cc4cccc(c4)Oc4cc(ccc4OCCN4CCCC4)C[C@@H](C(=O)N[C@H](C)C(=O)N[C@@H](C)C(=O)N2C)N(C)C3=O)cc1` [listing 2 of 2 here], the figures for the T/C in [2], in test [3] and in test [4] were 112%, 124% and 134%, respectively.

On to `COc1ccc(C[C@H]2C(=O)N[C@@H](C)C(=O)N(C)[C@H]3Cc4cccc(c4)Oc4cc(ccc4OCCN(C(C)C)C(C)C)C[C@@H](C(=O)N[C@H](C)C(=O)N[C@@H](C)C(=O)N2C)N(C)C3=O)cc1` [listing 1 of 2 here], for which the half-inhibitory concentration (IC50) in test [5] amounted to 1.5 ng/mL (≈ 0.0017 µM); in test [6], 4.5 ng/mL (≈ 0.00509 µM); in [1], 4.6 ng/mL (≈ 0.0052 µM).

With `COc1ccc(C[C@H]2C(=O)N[C@@H](C)C(=O)N(C)[C@H]3Cc4cccc(c4)Oc4cc(ccc4OCCN4CCCCCC4)C[C@@H](C(=O)N[C@H](C)C(=O)N[C@@H](C)C(=O)N2C)N(C)C3=O)cc1` [listing 1 of 2 here], the T/C in [2] amounted to 112%; in test [3] it was 123%; in test [4], 137%.

On to `CCN(CC)CCOc1ccc2cc1Oc1cccc(c1)C[C@H]1C(=O)N(C)[C@@H](C2)C(=O)N[C@H](C)C(=O)N[C@@H](C)C(=O)N(C)[C@@H](Cc2ccc(OC)cc2)C(=O)N[C@@H](C)C(=O)N1C` [listing 1 of 2 here], for which the results for the T/C in test [2], in test [3] and in test [4] were 116%, 124% and 136%, respectively.

Compound `COc1ccc(C[C@H]2C(=O)N[C@@H](C)C(=O)N(C)[C@H]3Cc4cccc(c4)Oc4cc(ccc4OCCN4CCCCCC4)C[C@@H](C(=O)N[C@H](C)C(=O)N[C@@H](C)C(=O)N2C)N(C)C3=O)cc1` [listing 2 of 2 here] registered an IC50 in [1] of 7.6 ng/mL (≈ 0.00862 µM).

`COc1ccc(C[C@H]2C(=O)N[C@@H](C)C(=O)N(C)[C@H]3Cc4cccc(c4)Oc4cc(ccc4OCCN(C(C)C)C(C)C)C[C@@H](C(=O)N[C@H](C)C(=O)N[C@@H](C)C(=O)N2C)N(C)C3=O)cc1` [listing 2 of 2 here]: the T/C in test [7] was 43.3%; in test [8], 69.7%; in [9] it was 55.9%; in test [10], 32.1%; in test [11] it was 57.5% and 32.1%; in test [12], 83.4%. Also, the T/C in test [13] is 136.3%; in test [14], 57.1%; in test [15], 143.1%; in test [16], 41.5%; in test [17], 42.1%; in [18] it was 38.5%. For the same compound, the T/C in test [19] worked out at 99.6%; in test [20], 34.5%; in test [2], 151%; in [3], 157%; in test [4], 170%.

As for `COc1ccc(C[C@H]2C(=O)N[C@@H](C)C(=O)N(C)[C@H]3Cc4cccc(c4)Oc4cc(ccc4OCCN(Cc4ccccc4)Cc4ccccc4)C[C@@H](C(=O)N[C@H](C)C(=O)N[C@@H](C)C(=O)N2C)N(C)C3=O)cc1` [listing 1 of 2 here], the Activity worked out at 105% in [2], 119% in [3] and 134% in [4].

For the compound `COc1ccc(C[C@H]2C(=O)N[C@H](C)C(=O)N(C)[C@H]3Cc4cccc(c4)Oc4cc(ccc4OC)C[C@@H](C(=O)N[C@H](C)C(=O)N[C@@H](C)C(=O)N2C)N(C)C3=O)cc1`, in [21], the T/C result is “Toxic”.

Regarding `CCN(CCOc1ccc2cc1Oc1cccc(c1)C[C@H]1C(=O)N(C)[C@@H](C2)C(=O)N[C@H](C)C(=O)N[C@@H](C)C(=O)N(C)[C@@H](Cc2ccc(OC)cc2)C(=O)N[C@@H](C)C(=O)N1C)c1ccccc1` [listing 1 of 2 here], the half-maximal inhibitory concentration (IC50) in test [1] was determined as 9.9 ng/mL (≈ 0.011 µM).

As to `COc1ccc(C[C@H]2C(=O)N[C@@H](C)C(=O)N(C)[C@H]3Cc4cccc(c4)Oc4cc(ccc4OCCN4CCCCC4)C[C@@H](C(=O)N[C@H](C)C(=O)N[C@@H](C)C(=O)N2C)N(C)C3=O)cc1` [listing 1 of 2 here], the T/C was 115% in test [2], 123% in [3] and 127% in [4].

Consider `CCN(CCOc1ccc2cc1Oc1cccc(c1)C[C@H]1C(=O)N(C)[C@@H](C2)C(=O)N[C@H](C)C(=O)N[C@@H](C)C(=O)N(C)[C@@H](Cc2ccc(OC)cc2)C(=O)N[C@@H](C)C(=O)N1C)c1ccccc1` [listing 2 of 2 here], for which the figures for the T/C in test [2], in [3] and in test [4] were 116%, 133% and 150%, respectively.

Compound `COc1ccc(C[C@H]2C(=O)N[C@@H](C)C(=O)N(C)[C@H]3Cc4cccc(c4)Oc4cc(ccc4OCCN(Cc4ccccc4)Cc4ccccc4)C[C@@H](C(=O)N[C@H](C)C(=O)N[C@@H](C)C(=O)N2C)N(C)C3=O)cc1` [listing 2 of 2 here] showed an IC50 in test [1] of 59 ng/mL (≈ 0.0602 µM).

Regarding `COc1ccc(C[C@H]2C(=O)N[C@@H](C)C(=O)N(C)[C@H]3Cc4cccc(c4)Oc4cc(ccc4OC)C[C@@H](C(=O)N[C@H](C)C(=O)N[C@@H](C)C(=O)N2C)N(C)C3=O)cc1`, the results for the half-maximal inhibitory concentration (IC50) in test [5], in [6] and in test [1] were 2.9 ng/mL (≈ 0.00376 µM), 1.2 ng/mL (≈ 0.00156 µM) and 2.3 ng/mL (≈ 0.00298 µM), respectively.

In the case of `COc1ccc(C[C@H]2C(=O)N[C@@H](C)C(=O)N(C)[C@H]3Cc4cccc(c4)Oc4cc(ccc4OCCN4CCCCC4)C[C@@H](C(=O)N[C@H](C)C(=O)N[C@@H](C)C(=O)N2C)N(C)C3=O)cc1` [listing 2 of 2 here], the concentration for half-maximal inhibition (IC50) in [1] came to 8.7 ng/mL (≈ 0.01 µM).

In test [1], `CCN(CC)CCOc1ccc2cc1Oc1cccc(c1)C[C@H]1C(=O)N(C)[C@@H](C2)C(=O)N[C@H](C)C(=O)N[C@@H](C)C(=O)N(C)[C@@H](Cc2ccc(OC)cc2)C(=O)N[C@@H](C)C(=O)N1C` [listing 2 of 2 here] showed an IC50 of 10 ng/mL (≈ 0.0117 µM).

As for `COc1ccc(C[C@H]2C(=O)N[C@@H](C)C(=O)N(C)[C@H]3Cc4cccc(c4)Oc4cc(ccc4OCCN(C)C)C[C@@H](C(=O)N[C@H](C)C(=O)N[C@@H](C)C(=O)N2C)N(C)C3=O)cc1`, the concentration for half-maximal inhibition (IC50) in test [5] is 79 ng/mL (≈ 0.0954 µM); in test [6], 18 ng/mL (≈ 0.0217 µM); in test [1], 25 ng/mL (≈ 0.0302 µM).

(Values after ChEMBL document CHEMBL1129817, “Novel water-soluble analogues retaining potent antitumor activity of RA-VII, a cyclic hexapeptide from Rubia plants” (Bioorg Med Chem Lett, 1997).)
